Tests used:
L1210 [1] = assay: Cytotoxicity against mouse L1210 cells assessed as inhibition of cell viability after 72 hrs by MTT assay; assay type: functional, cell-based; settings: L1210, 72 h
PBMC = assay: Cytotoxicity against human PBMC assessed as inhibition of cell viability after 72 hrs by MTT assay; assay type: cell-based
L1210 [2] = assay: Antitumor activity against mouse L1210 cells assessed as inhibition of [3H]thymidine incorporation after 72 hrs; assay type: functional, cell-based
L1210 [3] = assay: Cytotoxicity against mouse L1210 cells assessed as inhibition of cell viability after 72 hrs by MTT assay relative to control; assay type: functional; set-up: concentration or dose not given beside the values; settings: values are per cent of control
L1210 [4] = assay: Antitumor activity against mouse L1210 cells assessed as inhibition of [3H]thymidine incorporation at 0.5 mg/ml after 72 hrs relative to control; assay type: functional; settings: values are per cent of control
L1210 [5] = assay: Ratio of IC50 for mouse L1210 cells by MTT assay to EC50 for mouse L1210 cells by [3H]thymidine incorporation assay; assay type: functional
L1210 [6] = assay: Cytotoxicity against mouse L1210 cells assessed as inhibition of cell viability at 0.5 mg/ml after 72 hrs by MTT assay; assay type: functional; settings: L1210, 72 h
[7] = Cytotoxicity against human PBMC assessed as inhibition of cell viability at 0.5 mg/ml after 72 hrs by MTT assay; assay type: cell-based; settings: PBMC (peripheral blood mononuclear cells), read-out: INH
L1210 [8] = assay: Antitumor activity against mouse L1210 cells assessed as inhibition of [3H]thymidine incorporation at 0.25 mg/ml after 72 hrs relative to control; assay type: functional
[9] = Cytotoxicity against human PBMC assessed as inhibition of cell viability at 0.25 mg/ml after 72 hrs by MTT assay; assay type: cell-based; settings: PBMC (peripheral blood mononuclear cells), read-out: INH
L1210 [10] = assay: Antitumor activity against mouse L1210 cells assessed as inhibition of [3H]thymidine incorporation at 0.215 mg/ml after 72 hrs relative to control; assay type: functional
[11] = Cytotoxicity against human PBMC assessed as inhibition of cell viability at 0.21 mg/ml after 72 hrs by MTT assay; assay type: cell-based; settings: PBMC (peripheral blood mononuclear cells), read-out: INH

Compound	IC50 (L1210 [1]) [µM]	IC50 (PBMC) [µM]	EC50 (L1210 [2]) [µM]	viability, % of control (L1210 [3]) [%]	growth, % of control at 500 µg/mL (L1210 [4]) [%]	Ratio IC50/EC50 (L1210 [5])	inhibition at 500 µg/mL (L1210 [6]) [%]	cytotoxicity at 72 h, 0.5 mg/ml [7] [%]	inhibition at 250 µg/mL (L1210 [8]) [%]	cytotoxicity at 72 h, 0.25 mg/ml [9] [%]	inhibition at 215 µg/mL (L1210 [10]) [%]	cytotoxicity at 72 h, 0.21 mg/ml [11] [%]
CC(=O)N[C@H]1[C@@H](OCc2ccccc2)O[C@H](CO)[C@@H](O)[C@@H]1O[C@H](C)C(=O)N[C@H](C(=O)N[C@H](CCC(=O)NCCNc1ncnc2c1ncn2[C@@H]1O[C@H](CO)[C@@H](O)[C@H]1O)C(N)=O)C(C)C	555	555	292	59.37	31.1	1.9	< 50	< 50				
CC(=O)N[C@H]1[C@@H](OCc2ccccc2)O[C@H](CO)[C@@H](O)[C@@H]1OCC(=O)N[C@@H](C(=O)N[C@H](CCC(=O)NCCNc1ncnc2c1ncn2[C@@H]1O[C@H](CO)[C@@H](O)[C@H]1O)C(N)=O)C(C)C	285	561	512	31.65	12.3	2.6		< 50				
CC(=O)N[C@H]1[C@@H](OCc2ccccc2)O[C@H](CO)[C@@H](O)[C@@H]1OCC(=O)N[C@H](C)C(=O)N[C@H](CCC(=O)O)C(N)=O	287	335	363	19.97	0.55	36.6						
CC(=O)N[C@H]1[C@@H](OCc2ccccc2)O[C@H](CO)[C@@H](O)[C@@H]1O[C@H](C)C(=O)N[C@@H](C(=O)N[C@H](CCC(=O)O)C(N)=O)C(C)C	266	244	228	39.72		47.9			0.83	< 50		
CC(=O)N[C@H]1[C@@H](OCc2ccccc2)O[C@H](CO)[C@@H](O)[C@@H]1OCC(=O)N[C@@H](C)C(=O)N[C@H](CCC(=O)NCCCCCC(=O)Nc1ncnc2c1ncn2[C@@H]1O[C@H](CO)[C@@H](O)[C@H]1O)C(N)=O	537	537	537	70.64	178	0.4		< 50				
CC(=O)N[C@H]1[C@@H](OCc2ccccc2)O[C@H](CO)[C@@H](O)[C@@H]1O[C@H](C)C(=O)N[C@@H](C)C(=O)N[C@H](CCC(=O)NCCCCCC(=O)Nc1ncnc2c1ncn2[C@@H]1O[C@H](CO)[C@@H](O)[C@H]1O)C(N)=O	529	529	529	65.58	192	0.3		< 50				
CC(=O)N[C@H]1[C@@H](OCc2ccccc2)O[C@H](CO)[C@@H](O)[C@@H]1OCC(=O)N[C@H](C)C(=O)N[C@H](CCC(=O)NCCNc1ncnc2c1ncn2[C@@H]1O[C@H](CO)[C@@H](O)[C@H]1O)C(N)=O	270	298	500	29.84	0.67	44.7						
Nc1ncnc2c1ncn2[C@@H]1O[C@H](CO)[C@@H](O)[C@H]1O [ADENOSINE]	991	1870	1870	32.79	132	0.2		< 50				
CC(=O)N[C@H]1[C@@H](OCc2ccccc2)O[C@H](CO)[C@@H](O)[C@@H]1O[C@H](C)C(=O)N1CCC[C@@H]1C(=O)N[C@H](CCC(=O)NCCNc1ncnc2c1ncn2[C@@H]1O[C@H](CO)[C@@H](O)[C@H]1O)C(N)=O	311	271	507	43.1	4.65	9.3						
CC[C@@H](NC(=O)[C@@H](C)O[C@H]1[C@H](O)[C@@H](CO)O[C@H](OCc2ccccc2)[C@@H]1NC(C)=O)C(=O)N[C@H](CCC(=O)NCCNc1ncnc2c1ncn2[C@@H]1O[C@H](CO)[C@@H](O)[C@H]1O)C(N)=O	220	439	446	29.01	0.86	33.8						
CC[C@@H](NC(=O)CO[C@H]1[C@H](O)[C@@H](CO)O[C@H](OCc2ccccc2)[C@@H]1NC(C)=O)C(=O)N[C@H](CCC(=O)NCCNc1ncnc2c1ncn2[C@@H]1O[C@H](CO)[C@@H](O)[C@H]1O)C(N)=O	571	466	506	53.6	2.73	19.6	< 50					
CC(=O)N[C@H]1[C@@H](OCc2ccccc2)O[C@H](CO)[C@@H](O)[C@@H]1OCC(=O)N[C@H](CO)C(=O)N[C@H](CCC(=O)O)C(N)=O	314	858	290	14.68	0.76	19.3		< 50				
CC(=O)N[C@H]1[C@@H](OCc2ccccc2)O[C@H](CO)[C@@H](O)[C@@H]1O[C@H](C)C(=O)N[C@H](CO)C(=O)N[C@H](CCC(=O)NCCNc1ncnc2c1ncn2[C@@H]1O[C@H](CO)[C@@H](O)[C@H]1O)C(N)=O	218	324	497	28.09	5.14	5.5						
CC(=O)N[C@H]1[C@@H](OCc2ccccc2)O[C@H](CO)[C@@H](O)[C@@H]1O[C@H](C)C(=O)N[C@H](C)C(=O)N[C@H](CCC(=O)NCCNc1ncnc2c1ncn2[C@@H]1O[C@H](CO)[C@@H](O)[C@H]1O)C(N)=O	287	389	517	35.91	9.75	3.7						
CC(=O)N[C@@H]1[C@@H](O[C@H](C)C(=O)N[C@H](C)C(=O)N[C@H](CCC(=O)O)C(N)=O)[C@H](O)[C@@H](CO)O[C@@H]1O	1010	1010	1010	64.93	146	0.4		< 50				
CC(=O)N[C@H]1[C@@H](OCc2ccccc2)O[C@H](CO)[C@@H](O)[C@@H]1O[C@H](C)C(=O)N[C@@H](C(=O)N[C@H](CCC(=O)NCCNc1ncnc2c1ncn2[C@@H]1O[C@H](CO)[C@@H](O)[C@H]1O)C(N)=O)C(C)C	161	234	458	-0.87	2.9	-0.3						
CC(=O)N[C@H]1[C@@H](OCc2ccccc2)O[C@H](CO)[C@@H](O)[C@@H]1OCC(=O)N1CCC[C@@H]1C(=O)N[C@H](CCC(=O)NCCNc1ncnc2c1ncn2[C@@H]1O[C@H](CO)[C@@H](O)[C@H]1O)C(N)=O	562	280	511	52.99	6.1	8.7	< 50					
CC(=O)N[C@H]1[C@@H](OCc2ccccc2)O[C@H](CO)[C@@H](O)[C@@H]1OCC(=O)N[C@@H](C(=O)N[C@H](CCC(=O)O)C(N)=O)C(C)C	170	361	193	26.6		23.7		< 50			1.12	< 50
CC(=O)N[C@H]1[C@@H](OCc2ccccc2)O[C@H](CO)[C@@H](O)[C@@H]1OCC(=O)N[C@H](CO)C(=O)N[C@H](CCC(=O)NCCNc1ncnc2c1ncn2[C@@H]1O[C@H](CO)[C@@H](O)[C@H]1O)C(N)=O	570	479	541	64.95	31.6	2.1						
